Assay results: patent US20080206761A1, “Ex Vivo Gene Expression in Whole Blood as a Model of Assessment of Individual Variation to Dietary Supplements” (priority 2005, published 2008)

Tested on: TNFSF15 mRNA
Assay: TNFSF15 mRNA in whole blood after dietary component and heat-aggregated IgG stimulation
Assay type: cell-based, human
Protocol: The mRNA and cDNA were prepared from the whole blood that was exposed to the dietary components, as well as the whole blood which remained unexposed. In brief, home-made 96-well filterplates were placed over collection plates, and 150 μl 5 mM Tris, pH 7.4, was applied. Following centrifugation at 120×g for 1 min at 4° C., 50 μl of blood samples were applied to each well and immediately centrifuged at 120×g for 2 min at 4° C., followed by washing of each well with 300 μl PBS once with centrifugation at 2000×g for 5 min at 4° C. Then, 60 μl stock lysis buffer, containing for example 0.5% N-Lauroylsarcosine, 4×SSC, 10 mM Tris HCl, pH 7.4, 1 mM EDTA, 0.1% IGEPAL CA-630, and 1.791 M guanidine thiocyanate, supplemented with 1% 2-mercaptoethanol (Bio Rad, Hercules, Calif., USA), 0.5 mg/ml proteinase K (Pierce, Rockford, Ill., USA), 0.1 mg/ml salmon sperm DNA (5 Prime Eppendorf/Brinkmann, Westbury, N.Y., USA), 0.1 mg/ml E. coli tRNA (Sigma), a cocktail of 10 mM each of the specific reverse primers shown in Table 2, and standard RNA34 oligonucleotides, were applied to the filterplates, followed by incubation at 37° C. for 10 min. The filterplates were then placed over oligo(dT)-immobilized microplates (GenePlate, RNAture), and centrifuged at 2000×g for 5 min at 4° C. Following overnight storage at 4° C., the microplates were washed with 100 μl plain lysis buffer 3 times, followed by 150 μl of wash buffer (0.5 M NaCl, 10 mM Tris, pH 7.4, 1 mM EDTA) 3 times at 4° C. […] The Ct was determined by analytical software (SDS, ABI).
In this embodiment, heparinized whole blood of two individuals was pre-incubated with various dietary supplements at 37° C. for 30 minutes (at the same blood concentrations as in Embodiment 2), then stimulated with 1.2 μL of heat-aggregated IgG. […] The level of TNFSF3 and TNFSF15 mRNA was then assessed using the method described in Embodiment 1, with the exception that SYBR Green PCR was used to quantitate the mRNA. […]

CC1=C(/C=C/C(C)=C/C=C/C(C)=C/CO)C(C)(C)CCC1 [VA, vitamin A]
effect on HAG-induced TNFSF15 expression, in words (FIG. 6, two cases, vitamin A 100 nmol/L): eliminated the effect on HAG in one case (case 1) | baseline expression of TNFSF15, in words (FIG. 6, vitamin A 100 nmol/L): decreased the baseline expression of TNFSF-15 | effect on HAG-induced TNFSF15 expression, in words (FIG. 7 follow-up, seven cases overall, vitamin A only): exhibited an inhibitory action on HAG-induced TNFSF15 expression in case 1, and in two of seven cases overall
